ChEMBL document CHEMBL1201862, “PubChem BioAssay data set” (2004)
The source made the active and inactive calls.

Experiments:
[1] = target: T1, Eukaryotic translation initiation factor 2-alpha kinase 3 (Homo sapiens, UniProt Q9NZJ5); experiment: Counterscreen assay for PERK inhibitors: Dose response cell-based high throughput screening assay to measure inhibition of PERK at 6 hours. [Related pubchem assays: 1522, 1416 ]; format: functional
T1 sequence (Q9NZJ5 whole entry): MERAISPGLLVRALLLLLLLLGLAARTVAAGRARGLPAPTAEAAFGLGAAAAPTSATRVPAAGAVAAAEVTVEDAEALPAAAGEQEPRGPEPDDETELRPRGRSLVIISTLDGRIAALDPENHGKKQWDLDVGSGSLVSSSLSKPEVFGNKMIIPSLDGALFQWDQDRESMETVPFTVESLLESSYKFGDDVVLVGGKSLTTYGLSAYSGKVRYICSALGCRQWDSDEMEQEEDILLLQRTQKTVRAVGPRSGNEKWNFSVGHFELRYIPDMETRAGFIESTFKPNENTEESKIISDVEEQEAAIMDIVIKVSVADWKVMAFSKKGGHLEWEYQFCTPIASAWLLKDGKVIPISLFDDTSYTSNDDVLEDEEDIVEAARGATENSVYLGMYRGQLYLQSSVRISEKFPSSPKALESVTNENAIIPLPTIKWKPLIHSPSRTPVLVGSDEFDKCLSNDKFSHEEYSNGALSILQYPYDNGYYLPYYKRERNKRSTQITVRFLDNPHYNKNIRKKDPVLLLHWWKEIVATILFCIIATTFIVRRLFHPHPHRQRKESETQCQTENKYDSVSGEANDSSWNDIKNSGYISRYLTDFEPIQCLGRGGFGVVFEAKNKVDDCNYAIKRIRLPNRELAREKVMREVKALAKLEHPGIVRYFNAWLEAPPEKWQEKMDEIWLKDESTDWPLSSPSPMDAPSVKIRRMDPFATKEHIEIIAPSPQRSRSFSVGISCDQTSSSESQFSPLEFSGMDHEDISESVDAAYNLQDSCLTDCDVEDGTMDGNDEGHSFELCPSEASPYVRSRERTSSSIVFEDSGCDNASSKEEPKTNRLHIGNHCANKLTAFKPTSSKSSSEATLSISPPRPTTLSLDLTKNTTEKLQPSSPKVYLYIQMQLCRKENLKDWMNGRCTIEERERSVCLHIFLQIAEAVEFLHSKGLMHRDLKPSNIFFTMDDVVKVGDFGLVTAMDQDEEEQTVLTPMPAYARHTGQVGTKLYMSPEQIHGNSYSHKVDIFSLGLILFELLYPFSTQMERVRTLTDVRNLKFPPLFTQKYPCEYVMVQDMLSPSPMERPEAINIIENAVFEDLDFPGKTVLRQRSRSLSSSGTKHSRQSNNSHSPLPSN

[2] = target: T1, Eukaryotic translation initiation factor 2-alpha kinase 3; experiment: Dose response cell-based high-throughput screening assay to measure PERK inhibition. [Related pubchem assays: 1416 ]; format: functional
[3] = target: Glyceraldehyde-3-phosphate dehydrogenase (Homo sapiens, UniProt P04406)
[4] = target: T2, Alkaline phosphatase, tissue-nonspecific isozyme (Homo sapiens, UniProt P05186); experiment: human TNAP enzyme inhibitors, SAR follow-up, biochemical, luminescent, dose response (AID 1056)
T2 sequence (P05186 whole entry): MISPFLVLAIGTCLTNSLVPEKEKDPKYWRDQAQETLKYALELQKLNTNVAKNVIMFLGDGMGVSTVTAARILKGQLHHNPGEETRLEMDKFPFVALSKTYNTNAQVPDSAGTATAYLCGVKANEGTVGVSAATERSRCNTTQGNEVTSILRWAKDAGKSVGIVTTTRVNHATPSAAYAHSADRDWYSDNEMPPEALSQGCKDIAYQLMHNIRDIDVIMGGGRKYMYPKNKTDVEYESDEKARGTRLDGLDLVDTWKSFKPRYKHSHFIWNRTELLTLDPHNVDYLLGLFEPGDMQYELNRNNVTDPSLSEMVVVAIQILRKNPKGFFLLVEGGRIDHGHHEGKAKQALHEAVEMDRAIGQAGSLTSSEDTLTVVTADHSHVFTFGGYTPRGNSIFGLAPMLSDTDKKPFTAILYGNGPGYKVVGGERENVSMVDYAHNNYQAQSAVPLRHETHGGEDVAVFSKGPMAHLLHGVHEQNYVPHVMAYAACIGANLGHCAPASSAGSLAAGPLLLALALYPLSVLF

[5] = target: DNA dC->dU-editing enzyme APOBEC-3A (Homo sapiens, UniProt P31941); experiment: APOBEC3A DNA deaminase inhibitors, dose response, biochemical (AID 504722); format: functional
[6] = target: DNA dC->dU-editing enzyme APOBEC-3G (Homo sapiens, UniProt Q9HC16); experiment: Dose Response confirmation of small molecule APOBEC3G DNA Deaminase Inhibitors via a fluorescence-based single-stranded DNA deaminase assay. [Related pubchem assays (depositor defined):AID493012, AID493028]; format: functional
[7] = target: Glucose-6-phosphate 1-dehydrogenase (Homo sapiens, UniProt P11413); experiment: human G6PD enzyme inhibitors, dose response, selectivity assay for P. falciparum G6PD inhibitor project, biochemical, fluorescence (AID 504792); format: functional
[8] = target: Eukaryotic translation initiation factor 4E (Mus musculus, UniProt P63073); experiment: eIF4E–eIF4G protein interaction inhibitors, dose response, biochemical, TR-FRET (AID 855); format: functional;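 also: potency for disrupting eIF4E binding to eIF4GI seen as loss of FRET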
CAAX prenyl protease 2 = CAAX prenyl protease 2 (Saccharomyces cerevisiae S288c, UniProt Q03530); format: biochemical
Trypsin = Trypsin (Sus scrofa, UniProt P00761); experiment: porcine trypsin inhibitors, dose response, selectivity assay for Rce1 protease inhibitor project, biochemical, quenched peptide fluorescence, cherry-pick (AID 488789)
[9] = target: Intestinal-type alkaline phosphatase (Homo sapiens, UniProt P09923); experiment: Dose Response confirmation of uHTS hits from a small molecule inhibitors of human intestinal alkaline phosphatase via a luminescent assay. [Related pubchem assays (depositor defined):AID2544, AID2574]; format: functional
[10] = target: T3, Zinc finger protein mex-5 (Caenorhabditis elegans, UniProt Q9XUB2); experiment: MEX-5/TCR-2 RNA interaction inhibitors, dose response, biochemical, C. elegans, fluorescence polarization (AID 1960)
T3 sequence (Q9XUB2 whole entry): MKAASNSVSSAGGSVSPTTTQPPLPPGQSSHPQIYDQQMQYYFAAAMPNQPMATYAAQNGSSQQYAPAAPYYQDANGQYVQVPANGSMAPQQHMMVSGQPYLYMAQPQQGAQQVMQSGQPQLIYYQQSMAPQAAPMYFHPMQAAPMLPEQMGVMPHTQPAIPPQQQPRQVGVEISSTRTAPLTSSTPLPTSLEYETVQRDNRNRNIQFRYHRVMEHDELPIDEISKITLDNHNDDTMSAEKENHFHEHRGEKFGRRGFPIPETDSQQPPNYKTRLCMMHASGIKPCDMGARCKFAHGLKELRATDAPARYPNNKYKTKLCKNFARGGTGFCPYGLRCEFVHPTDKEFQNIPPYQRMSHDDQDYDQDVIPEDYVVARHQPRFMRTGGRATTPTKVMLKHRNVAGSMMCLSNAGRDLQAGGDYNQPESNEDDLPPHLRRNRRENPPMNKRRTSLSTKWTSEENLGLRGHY

[11] = target: T4, Runt-related transcription factor 1/Core-binding factor subunit beta (Homo sapiens, UniProt Q01196+Q13951); experiment: inhibitors of RUNX1 Runt–CBFb-SMMHC binding, primary screen, biochemical, FRET, Cerulean-Runt, Venus-CBFb-SMMHC, uHTS (AID 1434); format: protein assay;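 also: partner is the CBFb-SMMHC leukemia fusion protein rather than wild-type CBFb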
[12] = target: T4, Runt-related transcription factor 1/Core-binding factor subunit beta; experiment: inhibitors of RUNX1 Runt–CBFb-SMMHC binding, biochemical, TR-FRET (AID 1438); format: protein assay
[13] = target: T5, RNA-binding protein pos-1 (Caenorhabditis elegans, UniProt G5EF15); experiment: inhibitors of POS-1/mex-3 RNA binding, dose response, biochemical, fluorescence polarization (AID 1964);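 also: purified POS-1 fused to maltose binding protein made in E. coli; potency of compounds blocking POS-1 binding to fluorescent RNA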
T5 sequence (G5EF15 whole entry): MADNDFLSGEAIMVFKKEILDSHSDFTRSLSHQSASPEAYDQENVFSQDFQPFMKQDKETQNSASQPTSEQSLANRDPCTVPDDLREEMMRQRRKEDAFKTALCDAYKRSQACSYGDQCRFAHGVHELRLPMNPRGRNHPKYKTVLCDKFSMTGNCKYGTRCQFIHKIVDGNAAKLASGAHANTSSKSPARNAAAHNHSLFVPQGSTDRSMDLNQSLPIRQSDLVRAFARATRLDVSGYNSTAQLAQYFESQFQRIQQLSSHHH

Trypanosoma cruzi = experiment: growth inhibition of intracellular Trypanosoma cruzi, dose response, cell-based, plate reader, dry powder, set 3 (AID 493197); format: functional
Coagulation factor XII = target: T6, Coagulation factor XII (Homo sapiens, UniProt P00748); experiment: Factor XIIa Dose Response Confirmation from Single Well HTS. [Related pubchem assays (depositor defined):AID701]; format: functional
T6 sequence (P00748 whole entry): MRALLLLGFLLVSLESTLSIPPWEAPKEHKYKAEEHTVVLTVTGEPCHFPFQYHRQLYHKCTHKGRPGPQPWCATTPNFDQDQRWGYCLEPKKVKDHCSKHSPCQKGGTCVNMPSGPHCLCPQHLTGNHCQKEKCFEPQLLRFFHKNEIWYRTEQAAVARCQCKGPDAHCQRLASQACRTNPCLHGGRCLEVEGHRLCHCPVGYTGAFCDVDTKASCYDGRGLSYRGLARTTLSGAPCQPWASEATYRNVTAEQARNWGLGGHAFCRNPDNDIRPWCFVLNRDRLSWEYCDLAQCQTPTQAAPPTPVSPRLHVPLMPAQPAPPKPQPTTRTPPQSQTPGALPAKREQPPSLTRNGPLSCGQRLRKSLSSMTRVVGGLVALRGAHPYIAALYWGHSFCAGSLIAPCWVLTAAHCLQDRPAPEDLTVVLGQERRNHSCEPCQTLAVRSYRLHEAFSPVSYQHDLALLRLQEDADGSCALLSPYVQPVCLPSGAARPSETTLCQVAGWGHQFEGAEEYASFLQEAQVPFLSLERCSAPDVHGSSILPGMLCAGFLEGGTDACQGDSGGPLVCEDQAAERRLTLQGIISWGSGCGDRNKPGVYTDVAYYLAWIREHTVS

[14] = cytotoxicity in HEK-293T cells, dose response, cytotoxicity control for BCR NF-kB inhibitor project, luminescence, B-cell screen hits (AID 489021); format: functional, cell-based;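 also: HEK-293T cells carrying an NF-kB luciferase reporter; cells exposed to compound for about 14 hours before viability readout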
[15] = target: Induced myeloid leukemia cell differentiation protein Mcl-1 (Homo sapiens, UniProt Q07820); format: functional
[16] = target: T7, Rac GTPase-activating protein 1 (Homo sapiens, UniProt Q9H0H5); experiment: MgcRacGAP GTPase-activating activity inhibitors, confirmation, biochemical, ADP Hunter fluorescence, primary and confirmatory (AID 624330); format: functional
T7 sequence (Q9H0H5 whole entry): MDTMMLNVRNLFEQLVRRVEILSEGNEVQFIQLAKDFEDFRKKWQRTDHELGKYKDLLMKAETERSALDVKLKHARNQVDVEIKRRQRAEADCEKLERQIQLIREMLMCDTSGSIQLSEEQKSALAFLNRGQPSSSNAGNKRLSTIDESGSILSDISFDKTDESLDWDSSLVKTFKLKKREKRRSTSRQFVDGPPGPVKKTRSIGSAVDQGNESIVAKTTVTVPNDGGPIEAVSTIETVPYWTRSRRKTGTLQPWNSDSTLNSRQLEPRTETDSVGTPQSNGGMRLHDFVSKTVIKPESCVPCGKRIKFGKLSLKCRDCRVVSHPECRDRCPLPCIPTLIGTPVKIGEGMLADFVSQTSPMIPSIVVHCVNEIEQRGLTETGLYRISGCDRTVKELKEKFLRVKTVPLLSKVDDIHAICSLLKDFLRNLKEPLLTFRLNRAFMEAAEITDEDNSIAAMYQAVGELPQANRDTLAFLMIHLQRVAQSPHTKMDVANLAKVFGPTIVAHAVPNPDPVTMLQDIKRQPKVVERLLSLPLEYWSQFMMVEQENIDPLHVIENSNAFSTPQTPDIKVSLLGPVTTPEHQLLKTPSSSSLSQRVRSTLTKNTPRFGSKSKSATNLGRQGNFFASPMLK

DNA dC->dU-editing enzyme APOBEC-3A, sequence (P31941 whole entry): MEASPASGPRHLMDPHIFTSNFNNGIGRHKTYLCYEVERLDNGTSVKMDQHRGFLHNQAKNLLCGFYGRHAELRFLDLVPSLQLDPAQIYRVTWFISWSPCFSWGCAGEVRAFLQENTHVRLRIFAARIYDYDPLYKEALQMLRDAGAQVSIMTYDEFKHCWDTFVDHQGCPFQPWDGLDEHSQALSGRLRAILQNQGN
DNA dC->dU-editing enzyme APOBEC-3G, sequence (Q9HC16 whole entry): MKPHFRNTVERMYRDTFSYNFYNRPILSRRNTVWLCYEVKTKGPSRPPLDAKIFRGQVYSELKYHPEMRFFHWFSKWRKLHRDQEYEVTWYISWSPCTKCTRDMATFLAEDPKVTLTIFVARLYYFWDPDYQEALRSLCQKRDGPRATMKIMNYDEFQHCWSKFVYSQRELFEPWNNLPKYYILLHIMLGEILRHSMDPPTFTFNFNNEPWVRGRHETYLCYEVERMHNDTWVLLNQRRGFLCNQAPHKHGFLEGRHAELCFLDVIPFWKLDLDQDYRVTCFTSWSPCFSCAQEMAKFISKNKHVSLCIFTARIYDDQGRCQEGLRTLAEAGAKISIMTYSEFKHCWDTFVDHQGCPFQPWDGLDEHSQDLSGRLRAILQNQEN
Eukaryotic translation initiation factor 4E, sequence (P63073 whole entry): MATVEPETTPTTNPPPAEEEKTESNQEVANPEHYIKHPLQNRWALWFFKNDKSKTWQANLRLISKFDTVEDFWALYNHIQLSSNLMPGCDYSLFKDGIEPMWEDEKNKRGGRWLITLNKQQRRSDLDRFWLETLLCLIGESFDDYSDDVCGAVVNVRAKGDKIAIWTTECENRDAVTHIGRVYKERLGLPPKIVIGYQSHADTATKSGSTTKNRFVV
T4 sequence (Q01196 whole entry, the tested form may be a part): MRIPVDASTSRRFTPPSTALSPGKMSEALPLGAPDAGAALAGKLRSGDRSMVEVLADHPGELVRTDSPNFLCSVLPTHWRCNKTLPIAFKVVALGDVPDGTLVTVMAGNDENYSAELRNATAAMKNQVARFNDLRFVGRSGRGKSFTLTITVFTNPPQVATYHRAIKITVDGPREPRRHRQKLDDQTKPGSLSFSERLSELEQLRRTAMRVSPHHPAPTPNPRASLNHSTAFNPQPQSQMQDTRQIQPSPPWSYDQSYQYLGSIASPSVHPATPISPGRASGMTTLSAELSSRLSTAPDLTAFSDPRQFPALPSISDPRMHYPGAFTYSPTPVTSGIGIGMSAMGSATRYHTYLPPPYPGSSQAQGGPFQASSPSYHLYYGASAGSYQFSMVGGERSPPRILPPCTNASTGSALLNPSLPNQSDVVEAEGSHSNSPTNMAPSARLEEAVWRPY
T4 sequence (Q13951 whole entry, the tested form may be a part): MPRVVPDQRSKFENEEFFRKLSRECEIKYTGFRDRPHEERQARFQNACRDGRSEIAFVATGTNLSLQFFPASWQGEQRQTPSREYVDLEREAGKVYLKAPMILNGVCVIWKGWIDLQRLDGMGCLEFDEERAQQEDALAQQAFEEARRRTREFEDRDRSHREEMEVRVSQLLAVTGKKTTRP
Glyceraldehyde-3-phosphate dehydrogenase, sequence (P04406 whole entry): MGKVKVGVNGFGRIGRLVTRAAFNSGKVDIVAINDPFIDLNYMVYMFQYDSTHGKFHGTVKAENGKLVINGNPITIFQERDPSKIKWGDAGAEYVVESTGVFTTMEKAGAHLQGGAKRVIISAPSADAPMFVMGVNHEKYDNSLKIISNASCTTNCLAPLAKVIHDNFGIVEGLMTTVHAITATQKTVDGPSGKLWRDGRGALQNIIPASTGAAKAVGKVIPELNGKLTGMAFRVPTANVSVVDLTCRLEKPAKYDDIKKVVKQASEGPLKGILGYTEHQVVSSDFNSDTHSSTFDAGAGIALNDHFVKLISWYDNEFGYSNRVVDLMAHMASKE
Induced myeloid leukemia cell differentiation protein Mcl-1, sequence (Q07820 whole entry): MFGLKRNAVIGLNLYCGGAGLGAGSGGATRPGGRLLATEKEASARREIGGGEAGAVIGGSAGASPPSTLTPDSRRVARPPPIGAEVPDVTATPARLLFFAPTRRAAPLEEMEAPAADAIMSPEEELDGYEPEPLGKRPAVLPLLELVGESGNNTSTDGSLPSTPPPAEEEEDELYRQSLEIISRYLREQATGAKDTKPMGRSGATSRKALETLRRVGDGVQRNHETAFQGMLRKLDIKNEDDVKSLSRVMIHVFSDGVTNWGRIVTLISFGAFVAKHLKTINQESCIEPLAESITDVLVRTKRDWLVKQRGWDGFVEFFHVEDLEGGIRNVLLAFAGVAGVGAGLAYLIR
CAAX prenyl protease 2, sequence (Q03530 whole entry): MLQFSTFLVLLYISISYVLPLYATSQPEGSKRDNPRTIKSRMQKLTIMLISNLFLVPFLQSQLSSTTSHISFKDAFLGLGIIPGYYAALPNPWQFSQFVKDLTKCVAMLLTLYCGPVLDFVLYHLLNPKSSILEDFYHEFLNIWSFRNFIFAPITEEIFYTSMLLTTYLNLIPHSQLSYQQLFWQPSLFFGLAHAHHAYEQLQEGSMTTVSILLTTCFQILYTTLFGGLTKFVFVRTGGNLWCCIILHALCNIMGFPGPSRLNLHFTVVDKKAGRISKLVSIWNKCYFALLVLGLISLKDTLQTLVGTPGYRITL
Intestinal-type alkaline phosphatase, sequence (P09923 whole entry): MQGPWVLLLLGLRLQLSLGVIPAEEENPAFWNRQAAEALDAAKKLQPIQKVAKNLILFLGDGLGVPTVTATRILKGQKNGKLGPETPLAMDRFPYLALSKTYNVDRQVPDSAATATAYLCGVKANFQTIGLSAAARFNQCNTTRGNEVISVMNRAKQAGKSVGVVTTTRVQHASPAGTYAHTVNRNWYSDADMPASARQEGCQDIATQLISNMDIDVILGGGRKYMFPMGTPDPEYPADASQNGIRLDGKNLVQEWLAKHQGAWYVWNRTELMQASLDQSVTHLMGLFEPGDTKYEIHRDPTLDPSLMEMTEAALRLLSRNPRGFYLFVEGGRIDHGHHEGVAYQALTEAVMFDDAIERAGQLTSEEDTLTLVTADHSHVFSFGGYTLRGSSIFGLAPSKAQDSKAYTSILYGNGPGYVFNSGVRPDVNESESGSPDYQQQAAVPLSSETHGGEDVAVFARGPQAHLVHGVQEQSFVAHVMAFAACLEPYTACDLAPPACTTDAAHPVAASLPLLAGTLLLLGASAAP
Trypsin, sequence (P00761 whole entry): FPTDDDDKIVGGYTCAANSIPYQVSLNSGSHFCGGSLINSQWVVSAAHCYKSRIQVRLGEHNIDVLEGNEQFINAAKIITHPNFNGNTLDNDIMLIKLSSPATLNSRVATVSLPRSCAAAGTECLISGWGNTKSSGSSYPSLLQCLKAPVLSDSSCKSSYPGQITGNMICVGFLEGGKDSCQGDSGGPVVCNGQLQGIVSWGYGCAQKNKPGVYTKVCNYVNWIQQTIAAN
Glucose-6-phosphate 1-dehydrogenase, sequence (P11413 whole entry): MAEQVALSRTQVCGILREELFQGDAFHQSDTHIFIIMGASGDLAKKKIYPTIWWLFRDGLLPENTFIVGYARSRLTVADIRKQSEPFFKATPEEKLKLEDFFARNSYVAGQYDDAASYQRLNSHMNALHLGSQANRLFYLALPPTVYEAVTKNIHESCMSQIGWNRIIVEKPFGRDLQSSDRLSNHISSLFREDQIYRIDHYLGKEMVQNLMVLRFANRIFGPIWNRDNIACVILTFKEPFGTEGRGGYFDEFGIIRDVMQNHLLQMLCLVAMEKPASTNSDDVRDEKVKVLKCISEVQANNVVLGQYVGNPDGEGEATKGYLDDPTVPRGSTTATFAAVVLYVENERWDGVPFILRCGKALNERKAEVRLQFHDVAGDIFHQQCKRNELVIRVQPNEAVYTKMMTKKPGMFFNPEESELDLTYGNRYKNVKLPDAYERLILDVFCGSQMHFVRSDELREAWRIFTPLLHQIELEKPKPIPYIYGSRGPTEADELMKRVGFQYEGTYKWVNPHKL

C/C(=N/N=C1\SCC(=O)N1c1ccccc1)c1ccc(C)cc1
EC50 [1]: > 55.7 µM (not active)
EC50 [2]: > 55.7 µM (not active)

COc1ccccc1C(=O)Nc1cnc2ccccc2c1
IC50 [3]: > 10 µM (inconclusive)
IC50 [4]: > 10 µM (inactive)

COc1cc(/C=N/n2cc(-c3ccccc3)nc2S)cc(OC)c1O
IC50 [5]: > 100 µM (inactive)
IC50 [6]: 5.9 µM (active)
IC50 [7]: > 80 µM (inactive)

CSc1cccc(NC(=S)N(Cc2ccc(C)cc2)Cc2cccnc2)c1
IC50 [8]: 50 µM (inactive)

Cc1ccc(-c2cn3c(S)nnc3s2)cc1
IC50 [5]: > 100 µM (inactive)
IC50 [6]: 2.61 µM (active)

COC(=O)c1cnn2c3c(c(C)nc12)CCCC3
AC50 (CAAX prenyl protease 2): 10.3 µM (active)
AC50 (Trypsin): 8.29 µM (active)

COc1ccc(CCN2C(=O)c3ccncc3C2=O)cc1OC
IC50 [9]: > 100 µM (inactive)

Oc1ccc(-c2cnns2)c(O)c1
EC50 [10]: 10.4 µM (active)
IC50 [11]: 31.5 µM (active)
IC50 [12]: 19.9 µM (active)
EC50 [13]: 45.5 µM (active)

CN(Cc1ccccc1)C(=O)C1CCCN(Cc2ccccc2)C1 (stereo not given)
AC50 (Trypanosoma cruzi): 5.07 µM (active)

Cc1ccc(-c2n[nH]c(=O)c3ccccc23)cc1S(=O)(=O)NCCO
IC50 (Coagulation factor XII): > 50 µM (inactive)

COC(=O)c1c(NC(=O)c2cccc([N+](=O)[O-])c2)sc(C(N)=O)c1C
IC50 [14]: > 80 µM (inactive)

N/C(=N\N=C\c1ccc([N+](=O)[O-])cc1)c1nonc1N
EC50 [1]: > 55.7 µM (not active)
EC50 [2]: > 55.7 µM (not active)

O=C1C=CC(=Nc2nc(O)c(-c3c(O)[nH]c4ccccc34)s2)C=C1
IC50 [15]: 1.67 µM (active)
IC50 [8]: 50 µM (inactive)
IC50 [16]: 59.2 µM (active)
